Data as given in patent US8217066B2, “Compounds as lysophosphatidic acid receptor antagonists” (Amira Pharmaceuticals, Inc., priority 2009, dated 2012).

Molecular target: T1, human LPA1 (Homo sapiens, UniProt Q92633)
T1 construct: the full-length cDNA for human LPA1 was obtained by PCR of the reverse transcription reaction; expressed in transfected cells
Assay: LPA1 calcium flux assay (HLPA1 Ca Flux)
Format: cell-based
Details: CHO cells stably expressing human LPA1, stimulated with 10 nM LPA
Description: A 1.1 kb cDNA encoding the human LPA1 receptor was cloned from human lung. Human lung RNA (Clontech Laboratories, Inc. USA) was reverse transcribed using the RETROscript kit (Ambion, Inc.) and the full-length cDNA for human LPA1 was obtained by PCR of the reverse transcription reaction. The nucleotide sequence of the cloned human LPA1 was determined by sequencing and confirmed to be identical to the published human LPA1 sequence (An et al. Biochem. Biophys. Res. Commun. 231:619 (1997). The cDNA was cloned into the pcDNA5/FRT expression plasmid and transfected in CHO cells using lipofectamine 2000 (Invitrogen Corp., USA). Clones stably expressing human LPA1 were selected using hygromycin and identified as cells that show Ca-influx in response to LPA.
Human LPA1 or LPA3 expressing CHO cells are seeded at 20,000-45,000 cells per well in a 96-well poly-D-lysine coated plate one or two days before the assay. Prior to the assay, the cells are washed once with PBS and then cultured in serum-free media overnight. On the day of the assay, a calcium indicator dye (Calcium 4, Molecular Devices) in assay buffer (HBSS with Ca^2+ and Mg^2+ and containing 20 mM Hepes and 0.3% fatty-acid free human serum albumin) is added to each well and incubation continued for 1 hour at 37° C. […] of test compounds in 2.5% DMSO are added to the cells and incubation continued at room temperature for 30 minutes. Cells are the stimulated by the addition of 10 nM LPA and intracellular Ca^2+ measured using the Flexstation 3 (Molecular Devices). IC50s are determined using Graphpad prism analysis of drug titration curves.

T1 sequence (Q92633 whole entry): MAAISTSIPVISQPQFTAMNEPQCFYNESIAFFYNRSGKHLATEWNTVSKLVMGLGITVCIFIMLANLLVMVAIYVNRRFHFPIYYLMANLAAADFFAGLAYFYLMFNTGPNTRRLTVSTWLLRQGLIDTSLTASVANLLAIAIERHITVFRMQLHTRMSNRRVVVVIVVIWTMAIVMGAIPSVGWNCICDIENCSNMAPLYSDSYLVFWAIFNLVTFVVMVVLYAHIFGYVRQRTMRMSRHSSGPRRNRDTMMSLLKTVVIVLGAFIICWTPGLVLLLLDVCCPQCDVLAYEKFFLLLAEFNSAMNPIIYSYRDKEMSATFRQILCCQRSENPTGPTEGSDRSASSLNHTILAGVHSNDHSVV

| Compound | IC50 [nM] |
| --- | --- |
| Cc1noc(-c2ccc(-c3ccc(C4(C(=O)O)CC4)cc3)cc2)c1CCOCc1ccccc1Cl [Compound 15, 1-(4′-{4-[2-(2-Chloro-benzyloxy)-ethyl]-3-methyl-isoxazol-5-yl}-biphenyl-4-yl)-cyclopropanecarboxylic acid] | < 300 |
| Cc1noc(-c2ccc(-c3ccc(C4(C(=O)O)CC4)cc3)cc2)c1NCCC(C)c1ccccc1 (stereo not drawn) [Compound 1, 1-{4′-[3-Methyl-4-(3-phenyl-butylamino)-isoxazol-5-yl]-biphenyl-4-yl}-cyclopropanecarboxylic acid] | < 300 |
| Cc1noc(-c2ccc(-c3ccc(C4(C(=O)O)CC4)cc3)cc2)c1C(F)(F)CCCc1ccccc1 [Compound 46, 1-{4′-[4-(1,1-Difluoro-4-phenyl-butyl)-3-methyl-isoxazol-5-yl]-biphenyl-4-yl}-cyclopropanecarboxylic acid] | 1000 to 50000 |
| Cc1noc(-c2ccc(-c3ccc(C4(C(=O)O)CC4)cc3)cc2)c1NC(C)CCc1ccccc1Cl (stereo not drawn) [Compound 53, 1-(4′-{4-[3-(2-Chloro-phenyl)-1-methyl-propylamino]-3-methyl-isoxazol-5-yl}-biphenyl-4-yl)-cyclopropanecarboxylic acid] | < 300 |
| Cc1noc(-c2ccc(-c3ccc(C4(C(=O)O)CC4)cc3)cc2)c1C(O)C(C)CCc1ccccc1 (stereo not drawn) [Compound 44, 1-{4′-[4-(1-Hydroxy-2-methyl-4-phenyl-butyl)-3-methyl-isoxazol-5-yl]-biphenyl-4-yl}-cyclopropanecarboxylic acid] | < 300 |
| Cc1noc(-c2ccc(-c3ccc(C4(C(=O)O)CC4)cc3)cc2)c1C(C)(O)CCCc1ccccc1 (stereo not drawn) [Compound 26, 1-{4′-[4-(1-Hydroxy-1-methyl-4-phenyl-butyl)-3-methyl-isoxazol-5-yl]-biphenyl-4-yl}-cyclopropanecarboxylic acid] | < 300 |
| Cc1noc(-c2ccc(-c3ccc(C4(C(=O)O)CC4)cc3)cc2)c1CCOC(C)c1ccccc1 (stereo not drawn) [Compound 14, 1-(4′-{3-Methyl-4-[2-(1-phenyl-ethoxy)-ethyl]-isoxazol-5-yl}-biphenyl-4-yl)-cyclopropanecarboxylic acid] | < 300 |
| Cc1noc(-c2ccc(-c3ccc(C4(C(=O)O)CC4)cc3)cc2)c1CC(O)CNCc1ccccc1 (stereo not drawn) [Compound 27, 1-{4′-[4-(3-Benzylamino-2-hydroxy-propyl)-3-methyl-isoxazol-5-yl]-biphenyl-4-yl}-cyclopropanecarboxylic acid] | 1000 to 50000 |
| Cc1noc(-c2ccc(-c3ccc(C4(C(=O)NS(C)(=O)=O)CC4)cc3)cc2)c1C(O)COCCc1ccccc1 (stereo not drawn) [Compound 74, N-(1-{4′-[4-(1-Hydroxy-2-phenethyloxy-ethyl)-3-methyl-isoxazol-5-yl]-biphenyl-4-yl}-cyclopropanecarbonyl)-methanesulfonamide] | < 300 |
| Cc1noc(-c2ccc(-c3ccc(C4(C(=O)O)CC4)cc3)cc2)c1NC(C)CC(C)(C)c1ccccc1 (stereo not drawn) [Compound 69, 1-{4′-[4-(1,3-Dimethyl-3-phenyl-butylamino)-3-methyl-isoxazol-5-yl]-biphenyl-4-yl}-cyclopropanecarboxylic acid] | < 300 |
| Cc1noc(-c2ccc(-c3ccc(C4(C(=O)O)CC4)cc3)cc2)c1CC(O)CCc1ccccc1 (stereo not drawn) [Compound 20, 1-{4′-[4-(2-Hydroxy-4-phenyl-butyl)-3-methyl-isoxazol-5-yl]-biphenyl-4-yl}-cyclopropanecarboxylic acid] | < 300 |
| Cc1ccc(S(=O)(=O)NC(=O)C2(c3ccc(-c4ccc(-c5onc(C)c5C(O)CCCc5ccccc5)cc4)cc3)CC2)cc1 (stereo not drawn) [Compound 78, N-(1-{4′-[4-(1-Hydroxy-4-phenyl-butyl)-3-methyl-isoxazol-5-yl]-biphenyl-4-yl}-cyclopropanecarbonyl)-4-methyl-benzenesulfonamide] | < 300 |
| Cc1noc(-c2ccc(-c3ccc(C4(C(=O)O)CC4)cc3)cc2)c1CCOCc1ccccc1 [Compound 7, 1-{4′-[4-(2-Benzyloxy-ethyl)-3-methyl-isoxazol-5-yl]-biphenyl-4-yl}-cyclopropanecarboxylic acid] | < 300 |
| Cc1noc(-c2ccc(-c3ccc(C4(C(=O)O)CC4)cc3)cc2)c1C(O)COCCc1ccccc1 (stereo not drawn) [Compound 59, 1-{4′-[4-(1-Hydroxy-2-phenethyloxy-ethyl)-3-methyl-isoxazol-5-yl]-biphenyl-4-yl}-cyclopropanecarboxylic acid] | < 300 |

Now from value to compound:

| IC50 [nM] | Compound |
| --- | --- |
| < 300 | CCC(CCc1ccccc1)Nc1c(C)noc1-c1ccc(-c2ccc(C3(C(=O)O)CC3)cc2)cc1 (stereo not drawn) [Compound 66, 1-{4′-[4-(1-Ethyl-3-phenyl-propylamino)-3-methyl-isoxazol-5-yl]-biphenyl-4-yl}-cyclopropanecarboxylic acid] |
| < 300 | Cc1noc(-c2ccc(-c3ccc(C4(C(=O)O)CC4)cc3)cc2)c1C(O)CCCc1ccc(C(F)(F)F)cc1 (stereo not drawn) [Compound 39, 1-(4′-{4-[1-Hydroxy-4-(4-trifluoromethyl-phenyl)-butyl]-3-methyl-isoxazol-5-yl}-biphenyl-4-yl)-cyclopropanecarboxylic acid] |
| < 300 | Cc1noc(-c2ccc(-c3ccc(C4(C(=O)O)CC4)cc3)cc2)c1NC(C)CCc1cccc(C(F)(F)F)c1 (stereo not drawn) [Compound 31, 1-(4′-{3-Methyl-4-[1-methyl-3-(3-trifluoromethyl-phenyl)-propylamino]-isoxazol-5-yl}-biphenyl-4-yl)-cyclopropanecarboxylic acid] |
| < 300 | Cc1noc(-c2ccc(-c3ccc(C4(C(=O)O)CC4)cc3)cc2)c1COCC(C)c1ccccc1 (stereo not drawn) [Compound 11, 1-{4′-[3-Methyl-4-(2-phenyl-propoxymethyl)-isoxazol-5-yl]-biphenyl-4-yl}-cyclopropanecarboxylic acid] |
| < 300 | Cc1noc(-c2ccc(-c3ccc(C4(C(=O)O)CC4)cc3)cc2)c1CCSCc1ccccc1 [Compound 18, 1-{4′-[4-(2-Benzylsulfanyl-ethyl)-3-methyl-isoxazol-5-yl]-biphenyl-4-yl}-cyclopropanecarboxylic acid] |
| < 300 | Cc1noc(-c2ccc(-c3ccc(C4(C(=O)O)CC4)cc3)cc2)c1C(O)CNCc1ccccc1 (stereo not drawn) [Compound 29, 1-{4′-[4-(2-Benzylamino-1-hydroxy-ethyl)-3-methyl-isoxazol-5-yl]-biphenyl-4-yl}-cyclopropanecarboxylic acid] |
| < 300 | Cc1noc(-c2ccc(-c3ccc(C4(C(=O)O)CC4)cc3)cc2)c1C(O)CC(C)(C)Cc1ccccc1 (stereo not drawn) [Compound 70, 1-{4′-[4-(1-Hydroxy-3,3-dimethyl-4-phenyl-butyl)-3-methyl-isoxazol-5-yl]-biphenyl-4-yl}-cyclopropanecarboxylic acid] |
| < 300 | Cc1noc(-c2ccc(-c3ccc(C4(C(=O)O)CC4)cc3)cc2)c1CNC[C@H](C)c1ccccc1 [Compound 22, 1-(4′-{3-Methyl-4-[((R)-2-phenyl-propylamino)-methyl]-isoxazol-5-yl}-biphenyl-4-yl)-cyclopropanecarboxylic acid] |
| 300 to 1000 | Cc1noc(-c2ccc(-c3ccc(C4(C(=O)O)CC4)cc3)cc2)c1CCNCc1ccccc1 [Compound 28, 1-{4′-[4-(2-Benzylamino-ethyl)-3-methyl-isoxazol-5-yl]-biphenyl-4-yl}-cyclopropanecarboxylic acid] |
| < 300 | Cc1noc(-c2ccc(-c3ccc(C4(C(=O)O)CC4)cc3)cc2)c1NCCCc1ccccc1 [Compound 2, 1-{4′-[3-Methyl-4-(3-phenyl-propylamino)-isoxazol-5-yl]-biphenyl-4-yl}-cyclopropanecarboxylic acid] |
